Test results taken from publication PMC6821791, “Phase I Trial of Pyragrel, a Novel Thromboxane Synthetase Inhibitor, to Evaluate the Safety, Tolerability, and Pharmacokinetics in Healthy Volunteers” (Frontiers in Pharmacology, 2019).
Where “and” joins values, the source holds several entries; their conditions need not be identical. Equal entries are not always repeated.

Columns and labels:
[1] = Preliminary pharmacodynamic studies of the metabolites; conditions: data not shown
Procedure: Based on the pharmacological activity, the pharmacokinetic characteristics of the metabolites were evaluated in the study.

[2] = test system: plasma TXB2 and 6-keto-PG1α; assay: Plasma TXB2 and 6-keto-PG1α by ELISA (Part IV); type: in vivo, human; conditions: pyragrel 60, 120, 240 mg single i.v. dose; data not shown
Procedure: (§1) Urinary levels of 11-D-HTXB2, the degree of platelet agglutination inhibition (DPAI), and the plasma levels of TXB2 and 6-keto-PG1α are considered effective indicators to confirm the antithrombotic effect of a drug candidate ([Uyama et al., 1985]; [Morio et al., 1993]). Therefore, we determined the inhibitory effect of pyragrel on all these three markers in Part IV after a single 3 h infusion dose of pyragrel (60, 120, or 240 mg). […] Similarly, the plasma levels of TXB2 and 6-keto-PG1α (stable metabolites of TXA2 and PGI2, respectively) were determined by ELISA since the decreased TXB2/6-keto- PG1α ratio indicates platelet aggregation and thrombosis inhibition ([Mizugaki et al., 1999]). […] Actually, levels of plasma TXB2 and 6-keto-PG1α are different between patients with cerebral ischemic and healthy subjects; with the limitation of small size for pharmacodynamic activity evaluation in the study, plus the significant reduction in urinary 11-D-HTXB2 level here, we recommended that a larger sample size, extensive phase II study should be performed in patients to further study the pharmacodynamic characteristic of pyragrel.

[3] = dog, in vivo; cited from earlier work
[4] = mice, daily 36 mg/kg injections for 4 days, cited from earlier work
[5] = test system: urinary 11-D-HTXB2 (indicator of TXA2 production); assay: Urinary 11-D-HTXB2 production by ELISA (Part IV); type: in vivo, human; conditions: for Urinary 11-D-HTXB2 (standardized by urine creatinine): Part IV
Procedure: […] […] Production of 11-dehydro-thrombxane B2 (11-D-HTXB2) in urine sample was detected by ELISA method.
(§2) The vital signs were analyzed by repeated measures analysis of variance (ANOVA), and laboratory indexes were analyzed by the paired t-test and one-way ANOVA. Comparison within different dose regimens of pyragrel or among different treatments (pyragrel, ozagrel, and placebo) or production of urinary 11-D-HTXB2 among groups was performed with the t-test, and expected values were considered along with the actual situation. Descriptive methods were used to compare the incidence of AE between pyragrel and ozagrel/placebo or in different pyragrel dose regimens; the normal/abnormal changes in laboratory examinations before and after administration were described.
Given that 11-dehydrothromboxane B2 (11-D-HTXB2) is considered a reliable indicator of TXA2 production in humans and several animal models ([Morio et al., 1993]; [Yamanaka et al., 1993]), we preliminarily measured the production of urinary 11-D-HTXB2 as a maker for evaluating the TXA2 inhibition activity of pyragrel in three dose groups (60, 120, or 240 mg) in Part IV. […] ( Table 9 ).

[6] = test system: platelet agglutination inducted by adenosine diphosphate (ADP) and arachidonic acid (AA); assay: Platelet agglutination inducted by ADP and AA (Part IV); type: in vivo, human; conditions: single 3 h infusion of pyragrel 60, 120 or 240 mg, data not shown
Procedure: as §1

[7] = Safety assessment, adverse event monitoring (Parts I-V); type: in vivo, human
Procedure: Safety was assessed using subject interviews and adverse event (AE) monitoring. All subjects received laboratory examinations after termination of drug infusion for 48 or 72 h; the examination items are the same as those listed in the screening process. If clinical abnormalities were present, further follow-ups were required until the laboratory test values or vital sign levels of the abnormal items returned to normal values or stable levels. The clinical significance of abnormal laboratory test values was determined by the physicians.
as §2

[8] = Part II, pyragrel 240 mg in 250 ml saline
[9] = Part III, multiple doses of pyragrel 180 mg
[10] = Part IV, pyragrel 60, 120, 240 mg crossover
[11] = Part V, pyragrel 360 mg in 24 h

Compound: COc1cc(CCC(=O)O)ccc1OCc1nc(C)c(C)nc1C [BBS]
- Antiplatelet and antithrombotic effects [1]: weak

Compound: COc1cc(C=CC(=O)[O-])ccc1OCc1nc(C)c(C)nc1C.[Na+] [Pyragrel, sodium pyragrel]
- Plasma 6-keto-PG1α [2]: increase
- Plasma TXB2 [2]: decreased
- Maximum safe dose [3]: > 12.5 mg/kg/day
- Bleeding time, lower than with ozagrel ([4]; P < 0.01): 35%
- Prolongation of coagulation time, pyragrel vs ozagrel [4]: comparable
- Duration of the inhibitory effect on 11-D-HTXB2 production ([5]; 120- and 240-mg group, P<0.05 vs preadministration): at least 12 h
- Urinary 11-D-HTXB2 (standardized by urine creatinine) ([5]; 60 mg/kg group, 0–3 h after administration): 37.83 ± 4.85 pg/mL
- Urinary 11-D-HTXB2 (standardized by urine creatinine) ([5]; 60 mg/kg group, 3–4 h after administration): 36.64 ± 4.15 pg/mL
- Urinary 11-D-HTXB2 (standardized by urine creatinine) ([5]; 60 mg/kg group, 4–8 h after administration): 35.05 ± 4.51 pg/mL
- Urinary 11-D-HTXB2 (standardized by urine creatinine) ([5]; 60 mg/kg group, 8–12 h after administration, 60 mg/kg): 34.77 pg/mL and 34.77 ± 4.16 pg/mL
- Urinary 11-D-HTXB2 (standardized by urine creatinine) ([5]; 60 mg/kg group, 12–24 h after administration, 60 mg/kg): 35.17 pg/mL and 35.17 ± 4.63 pg/mL
- Urinary 11-D-HTXB2 (standardized by urine creatinine) ([5]; 120 mg/kg group, 0–3 h after administration): 37.06 ± 5.00 pg/mL
- Urinary 11-D-HTXB2 (standardized by urine creatinine) ([5]; 120 mg/kg group, 3–4 h after administration): 35.85 ± 4.40 pg/mL
- Urinary 11-D-HTXB2 (standardized by urine creatinine) ([5]; 120 mg/kg group, 4–8 h after administration): 33.03 ± 5.00 pg/mL
- Urinary 11-D-HTXB2 (standardized by urine creatinine) ([5]; 120 mg/kg group, 8–12 h after administration): 31.45 ± 4.88 pg/mL
- Urinary 11-D-HTXB2 (standardized by urine creatinine) ([5]; 120 mg/kg group, 12–24 h after administration): 32.14 ± 5.17 pg/mL
- Urinary 11-D-HTXB2 (standardized by urine creatinine) ([5]; 240 mg group, 0–3 h after administration): 36.40 ± 4.68 pg/mL
- Urinary 11-D-HTXB2 (standardized by urine creatinine) ([5]; 240 mg group, 3–4 h after administration): 35.37 ± 4.60 pg/mL
- Urinary 11-D-HTXB2 (standardized by urine creatinine) ([5]; 240 mg group, 4–8 h after administration): 33.10 ± 4.31 pg/mL
- Urinary 11-D-HTXB2 (standardized by urine creatinine) ([5]; 240 mg group, 8–12 h after administration, 240 mg/kg): 30.72 pg/mL and 30.72 ± 4.38 pg/mL
- Urinary 11-D-HTXB2 (standardized by urine creatinine) ([5]; 240 mg group, 12–24 h after administration, 240 mg/kg): 31.37 pg/mL and 31.37 ± 3.79 pg/mL
- Production of urinary 11-D-HTXB2, effect in words ([5]; single infusion of pyragrel 60, 120 or 240 mg): time- and dose-dependently inhibited
- Platelet agglutination inducted by ADP and AA [6]: slightly inhibited
- AE incidence rate (IR) ([7]; Part I, 36 pyragrel-treated subjects, 8 subjects of ozagrel treatment): 33.3%
- AE Type ([7]; Part I, pyragrel 30 mg): DB elevation, palpitation
- Number of AEs ([7]; Part I, pyragrel 30 mg): 2
- AE Type ([7]; Part I, pyragrel 60 mg): Leucocytes increase, positive urine protein
- Number of AEs ([7]; Part I, pyragrel 60 mg): 2
- AE Type ([7]; Part I, pyragrel 120 mg): DB elevation
- Number of AEs ([7]; Part I, pyragrel 120 mg): 1
- AE Type ([7]; Part I, pyragrel 180 mg): DB elevation (2), ventosity
- Number of AEs ([7]; Part I, pyragrel 180 mg): 3
- AE Type ([7]; Part I, pyragrel 240 mg): APTT extension
- Number of AEs ([7]; Part I, pyragrel 240 mg): 2
- AE Type ([7]; Part I, pyragrel 300 mg): Lower hemoglobin, total bile acid increase
- Number of AEs ([7]; Part I, pyragrel 300 mg): 2
- AE Type [7, 8]: DB/TB elevation
- Number of AEs [7, 8]: 2
- AE incidence rate (IR) ([7]; Part II, pyragrel 240 mg in 250 ml saline, 2/4): 50%
- AE Type [7, 9]: DB/TB elevation, alanine aminotransferase elevated, abdominal pain, headache, low blood potassium, urine frequency, fecal OBT+.
- Number of AEs [7, 9]: 12
- AE Type [7, 10]: Dizziness, TB/DB elevation, transient left tinnitus, double upper arm papules, fatigue
- Number of AEs [7, 10]: 8
- AE incidence ([7]; Part V, continuous infusion, 1/4): 25.0%
- AE Type [7, 11]: DB elevation
- Number of AEs [7, 11]: 1
- Severe AEs, in words ([7]; Parts I-V): No severe AEs occurred
- Number of AEs ([7]; Total, Parts I-V): 35
- Incidence of elevation in conjugated bilirubin (DB elevation) ([7]; all parts, 12/68 subjects of pyragrel, 2/8 subjects of ozagrel): 17.6%
- Tolerability, in words ([7]; single i.v. infusion up to 300 mg, multiple dose 180 mg, prolonged infusion 360 mg within 24 h): well tolerated
